pIC50: −log10 of the molar value.
These molecules were tested against T1, Insulin-like growth factor 2 receptor (IGF-1IR, cation-independent mannose-6-phosphate receptor, CI-MPR; hIGF-IIR) (Homo sapiens, UniProt P11717) (assay: HTRF-based ternary complex inhibition assay for relative affinity of IGF-IIR ligands). Conditions: competition with MTAC probe for His-tagged hIGF-IIR; biotinylated IgG1; apparent binding affinity; read-out: TCF INH (HTRF) IC50.
T1 construct: purchased R&D Systems 6418-GR
Procedure: The apparent binding affinity of Insulin-like growth factor 2 receptor (IGF-1IR, also called the cation- independent mannose-6-phosphate receptor (CI-MPR)) ligands was determined indirectly by competing with a probe molecule for binding to IGF-1IR. The probe is a Mannose 6-Phosphate Ligand (“Ligand”) and binds to hIGF-IIR and IgG1 to form a hIGF-IIR: Ligand: IgG1 ternary complex. The ternary complex was detected by an HTRF readout. The ternary complex is disrupted in the presence of IGF-1IR ligand, resulting in decreased HTRF signal. IGF-1IR ligands of 3-fold dilution series were prepared from 10 mM DMSO stock on a 384-well LDV microplate using Echo Acoustic Liquid Handler (Beckman Coulter Life Sciences) followed by transfer of 600 nL of the solutions to an OptiPlate 384-well microplate (PerkinElmer, 6007290). Manose-6-phosphate (M6P; J&K, 530168) and glucose-6-phosphate (G6P; Sigma, V900924) were prepared from 100 mM stock in the same manner and were used as positive and negative controls, respectively. The wells used as 0% and 100% inhibition controls were prepared by adding 600 nL DMSO. 20 nL of 50 μM MTAC probe was transferred to all wells except the wells used as 100% Inhibition control. 9.4 μL working solution containing 65.1 nM of Biotinylated-IgG1 (Viva 20211108) and 65.1 nM of His-tagged hIGF-IIR (R&D Systems, 6418-GR) in assay buffer 50 mM Tris, pH 7.5, 150 mM NaCl, 50 mM CaCl2, 0.01% Tween-20 was transferred to all wells. The plate was incubated at room temperature for 60 min with gentle shaking to allow molecular interaction to reach equilibration. Following this, 10 μL of HTRF detection solution containing 15 nM Streptavidin-d2 (PerkinElmer, 610SADLA) and 0.7 nM MAb Anti 6HIS—Tb cryptate (PerkinElmer, 61HISTLA) in PPI Terbium detection buffer (PerkinElmer, 61DB10RDF) was added. The assay plate was incubated at room temperature with gentle shaking for 60 min to allow HTRF signal to develop. The plate was gently spun on a centrifuge then placed on a EnVision plate reader (Perkin Elmer, EnVision 2104) to read fluorescence ratio of 665 nm/615 nm. Percent inhibitions were calculated with this equation: % I=100* [1−(X−100% I/(0% I−100% I)] where X is the […] in the presence of IGF-1IR ligand. The apparent binding affinity (presented as IC50) was calculated by fitting the % inhibition data with a non-linear 4-parameter inhibition equation using GraphPad Prism (GraphPad Software, LLC; version 9.4.1).

`COc1ccc(OC2O[C@H](CCP(=O)(O)Cc3ccccc3C#N)[C@@H](O)[C@H](O)[C@@H]2O)cc1` (stereo partly drawn) [Compound A49, (2-cyanophenyl)methyl-[2-[(2R,3S,4S,5S)-3,4,5-trihydroxy-6-(4-methoxyphenoxy)tetrahydropyran-2-yl]ethyl]phosphinic acid] and `COc1ccc(OC2O[C@H](CCP(=O)(O)Cc3ccccc3)[C@@H](O)[C@H](O)[C@@H]2O)cc1` (stereo partly drawn) [Compound A81, benzyl(2-((2R,3S,4S,5S)-3,4,5-trihydroxy-6-(4-methoxyphenoxy)tetrahydro-2H-pyran-2-yl)ethyl)phosphinic acid] cannot be ordered by pIC50: greater than 5.00 for the first, greater than 5.00 for the second.

`COc1ccc(OC2O[C@H](CCP(=O)(O)Cc3ccccn3)[C@@H](O)[C@H](O)[C@@H]2O)cc1` (stereo partly drawn) [Compound A50, (pyridin-2-ylmethyl) (2-((2R,3S,4S,5S)-3,4,5-trihydroxy-6-(4-methoxyphenoxy)tetrahydro-2H-pyran-2-yl)ethyl)phosphinic acid] and `COc1ccc(O[C@H]2O[C@H](CCP(=O)(O)Cc3c(F)cccc3Cl)[C@@H](O)[C@H](O)[C@@H]2O)cc1` [Compound A51, (2-chloro-6-fluorobenzyl) (2-((2R,3S,4S,5S,6R)-3,4,5-trihydroxy-6-(4-methoxyphenoxy)tetrahydro-2H-pyran-2-yl)ethyl)phosphinic acid] cannot be ordered by pIC50: greater than 5.00 for the first, greater than 5.00 for the second.

First: C=CCP(=O)(O)CC[C@H]1OC(Oc2ccc(OC)cc2)[C@@H](O)[C@@H](O)[C@@H]1O (stereo partly drawn) [Compound A52, allyl(2-((2R,3S,4S,5S)-3,4,5-trihydroxy-6-(4-methoxyphenoxy)tetrahydro-2H-pyran-2-yl)ethyl)phosphinic acid]
Second: CCCP(=O)(O)CC[C@H]1OC(Oc2ccc(OC)cc2)[C@@H](O)[C@@H](O)[C@@H]1O (stereo partly drawn) [Compound A57, propyl(2-((2R,3S,4S,5S)-3,4,5-trihydroxy-6-(4-methoxyphenoxy)tetrahydro-2H-pyran-2-yl)ethyl)phosphinic acid]
The pIC50 of the first is lower: 4.00 to 5.00 for the first, greater than 5.00 for the second. The second is the more potent here.

`CC#CCP(=O)(O)CC[C@H]1OC(Oc2ccc(OC)cc2)[C@@H](O)[C@@H](O)[C@@H]1O` (stereo partly drawn) [Compound A53, but-2-yn-1-yl(2-((2R,3S,4S,5S)-3,4,5-trihydroxy-6-(4-methoxyphenoxy)tetrahydro-2H-pyran-2-yl)ethyl)phosphinic acid] and `C#CCP(=O)(O)CC[C@H]1OC(Oc2ccc(OC)cc2)[C@@H](O)[C@@H](O)[C@@H]1O` (stereo partly drawn) [Compound A77, prop-2-yn-1-yl(2-((2R,3S,4S,5S)-3,4,5-trihydroxy-6-(4-methoxyphenoxy)tetrahydro-2H-pyran-2-yl)ethyl)phosphinic acid] fall in the same range of pIC50: 4.00 to 5.00 for the first, 4.00 to 5.00 for the second.

First: COc1ccc(O[C@H]2O[C@H](CCP(=O)(O)Cc3c(F)ccc(F)c3F)[C@@H](O)[C@H](O)[C@@H]2O)cc1 [Compound A54, (2,3,6-trifluorobenzyl) (2-((2R,3S,4S,5S)-3,4,5-trihydroxy-6-(4-methoxyphenoxy)tetrahydro-2H-pyran-2-yl)ethyl)phosphinic acid]
Second: COc1ccc(O[C@H]2O[C@H](CCP(=O)(O)Cc3c(F)cc(F)cc3F)[C@@H](O)[C@H](O)[C@@H]2O)cc1 [Compound A55, (2,4,6-trifluorobenzyl) (2-((2R,3S,4S,5S)-3,4,5-trihydroxy-6-(4-methoxyphenoxy)tetrahydro-2H-pyran-2-yl)ethyl)phosphinic acid]
The pIC50 of the first is higher: greater than 5.00 for the first, 4.00 to 5.00 for the second.

`COc1ccc(OC2O[C@H](CCP(=O)(O)CC3CC3)[C@@H](O)[C@H](O)[C@@H]2O)cc1` (stereo partly drawn) [Compound A56, (cyclopropylmethyl) (2-((2R,3S,4S,5S)-3,4,5-trihydroxy-6-(4-methoxyphenoxy)tetrahydro-2H-pyran-2-yl)ethyl)phosphinic acid] and `COc1ccc(OC2O[C@H](CCP(=O)(O)CC3CCCC3)[C@@H](O)[C@H](O)[C@@H]2O)cc1` (stereo partly drawn) [Compound A82, (cyclopentylmethyl) (2-((2R,3S,4S,5S)-3,4,5-trihydroxy-6-(4-methoxyphenoxy)tetrahydro-2H-pyran-2-yl)ethyl)phosphinic acid] cannot be ordered by pIC50: greater than 5.00 for the first, greater than 5.00 for the second.

First: COc1ccc(OC2O[C@H](CCP(=O)(O)CC3CC3(F)F)[C@@H](O)[C@H](O)[C@@H]2O)cc1 (stereo partly drawn) [Compound A58, ((2,2-difluorocyclopropyl)methyl) (2-((2R,3S,4S,5S)-3,4,5-trihydroxy-6-(4-methoxyphenoxy)tetrahydro-2H-pyran-2-yl)ethyl)phosphinic acid]
Second: COc1ccc(OC2O[C@H](CCP(=O)(O)CC(F)(F)F)[C@@H](O)[C@H](O)[C@@H]2O)cc1 (stereo partly drawn) [Compound A80, (2,2,2-trifluoroethyl) (2-((2R,3S,4S,5S)-3,4,5-trihydroxy-6-(4-methoxyphenoxy)tetrahydro-2H-pyran-2-yl)ethyl)phosphinic acid]
The pIC50 of the first is higher: greater than 5.00 for the first, 4.00 to 5.00 for the second.

`C#CCOc1cccc(CP(=O)(O)CC[C@H]2OC(Oc3ccc(OC)cc3)[C@@H](O)[C@@H](O)[C@@H]2O)c1` (stereo partly drawn) [Compound A59, (3-prop-2-ynoxyphenyl)methyl-[2-[(2R,3S,4S,5S)-3,4,5-trihydroxy-6-(4-methoxyphenoxy)tetrahydropyran-2-yl]ethyl]phosphinic acid] and `COc1ccc(OC2O[C@H](CCP(=O)(O)CC3=CCCC3)[C@@H](O)[C@H](O)[C@@H]2O)cc1` (stereo partly drawn) [Compound A78, (cyclopent-1-en-1-ylmethyl) (2-((2R,3S,4S,5S)-3,4,5-trihydroxy-6-(4-methoxyphenoxy)tetrahydro-2H-pyran-2-yl)ethyl)phosphinic acid] cannot be ordered by pIC50: greater than 5.00 for the first, greater than 5.00 for the second.

First: O=P(O)(CC[C@H]1OC(O)[C@@H](O)[C@@H](O)[C@@H]1O)Cc1c(F)cccc1F (stereo partly drawn) [Compound A60, (2,6-difluorobenzyl) (2-((2R,3S,4S,5S)-3,4,5,6-tetrahydroxytetrahydro-2H-pyran-2-yl)ethyl)phosphinic acid]
Second: O=P(O)(CC[C@H]1O[C@H](Oc2ccc3c(c2)Cc2ccccc2-3)[C@@H](O)[C@@H](O)[C@@H]1O)Cc1c(F)cccc1F [Compound A79, (2-((2R,3S,4S,5S,6R)-6-((9H-fluoren-2-yl)oxy)-3,4,5-trihydroxytetrahydro-2H-pyran-2-yl)ethyl) (2,6-difluorobenzyl)phosphinic acid]
The pIC50 of the first is lower: 4.00 to 5.00 for the first, greater than 5.00 for the second.

First: CC(=O)N1C[C@@H](O)[C@@H](O)[C@H](O)[C@H]1CCP(=O)(O)O [Compound A61, (2-((2R,3R,4R,5R)-1-acetyl-3,4,5-trihydroxypiperidin-2-yl)ethyl)phosphonic acid]
Second: O=P(O)(O)CC[C@H]1O[C@H](c2cn(-c3ccccc3)nn2)[C@@H](O)[C@@H](O)[C@@H]1O [Compound A84, (2-((2R,3S,4S,5S,6R)-3,4,5-trihydroxy-6-(1-phenyl-1H-1,2,3-triazol-4-yl)tetrahydro-2H-pyran-2-yl)ethyl)phosphonic acid]
The pIC50 of the first is lower: 4.00 to 5.00 for the first, greater than 5.00 for the second. The second is the more potent here.

Compared with `COc1ccc(OC2O[C@H](CCP(=O)(O)C(O)c3ccccc3)[C@@H](O)[C@H](O)[C@@H]2O)cc1` (stereo partly drawn) [Compound A74, (hydroxy (phenyl)methyl) (2-((2R,3S,4S,5S)-3,4,5-trihydroxy-6-(4-methoxyphenoxy)tetrahydro-2H-pyran-2-yl)ethyl)phosphinic acid], `COc1ccc(OC2O[C@H](CCP(=O)(O)CC#C[Si](C)(C)C)[C@@H](O)[C@H](O)[C@@H]2O)cc1` (stereo partly drawn) [Compound A75, 2-[(2R,3S,4S,5S)-3,4,5-trihydroxy-6-(4-methoxyphenoxy)tetrahydropyran-2-yl]ethyl-(3-trimethylsilylprop-2-ynyl)phosphinic acid] is lower in pIC50: greater than 5.00 for the first, 4.00 to 5.00 for the second. The first is the more potent here.

`Nc1ccc2c(c1)Cc1cc(O[C@H]3O[C@H](CCP(=O)(O)O)[C@@H](O)[C@H](O)[C@@H]3O)ccc1-2` [Compound A76, (2-((2R,3S,4S,5S,6R)-6-((7-amino-9H-fluoren-2-yl)oxy)-3,4,5-trihydroxytetrahydro-2H-pyran-2-yl)ethyl)phosphonic acid] and `C#CCCCCNC(=O)Nc1ccc2c(c1)Cc1cc(O[C@H]3O[C@H](CCP(=O)(O)O)[C@@H](O)[C@H](O)[C@@H]3O)ccc1-2` [Compound A83, (2-((2R,3S,4S,5S,6R)-6-((7-(3-(hex-5-yn-1-yl)ureido)-9H-fluoren-2-yl)oxy)-3,4,5-trihydroxytetrahydro-2H-pyran-2-yl)ethyl)phosphonic acid] cannot be ordered by pIC50: greater than 5.00 for the first, greater than 5.00 for the second.

— patent US20260131007A1, “Mannose 6-Phosphate Receptor Binding Compounds for the Degradation of Extracellular Proteins” (Avilar Therapeutics, Inc., priority 2023, published 2026)
